Each structure is given as a SMILES string. Where “and” joins values, the source holds several entries; their conditions need not be identical. Identical values can stand only once. Inconclusive results and toxic doses are left out.

The subject of the experiment is P388 leukemia ip, CD2F1 mice, survival T/C. The experiment in a line: NCI In Vivo Anticancer Drug Screen. Data for tumor model P388 Leukemia (intraperitoneal) in CD2F1 (CDF1) mice. The note with it: endpoint: median survival time, higher = longer survival. The gist of the method:
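Mice carrying the transplanted tumor received test compound or vehicle. Survival was recorded in each group, and the value is the treated-group measurement divided by that of the vehicle-treated control group.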

The mark [1] stands for this setting: dose: 50.0 mg/kg/injection, schedule: Q01DX005 (ip), vehicle: saline with Tween-80.
[2] abbreviates: dose: 100.0 mg/kg/injection, schedule: Q01DX005 (ip), vehicle: saline with Tween-80.
Where [3] appears, read: dose: 200.0 mg/kg/injection, schedule: Q01DX005 (ip), vehicle: saline with Tween-80.
The mark [4] stands for this setting: dose: 50.0 mg/kg/injection, schedule: Q01DX009 (ip), vehicle: saline with Tween-80.
The mark [5] stands for this setting: dose: 100.0 mg/kg/injection, schedule: Q01DX009 (ip), vehicle: saline with Tween-80.
Setting [6] is: dose: 200.0 mg/kg/injection, schedule: Q01DX009 (ip), vehicle: saline with Tween-80.
Where [7] appears, read: dose: 12.5 mg/kg/injection, schedule: Q01DX009 (ip), vehicle: Klucel (hydroxypropylcellulose) (HPC).
The mark [8] stands for this setting: dose: 25.0 mg/kg/injection, schedule: Q01DX009 (ip), vehicle: Klucel (hydroxypropylcellulose) (HPC).
[9] abbreviates: dose: 50.0 mg/kg/injection, schedule: Q01DX009 (ip), vehicle: Klucel (hydroxypropylcellulose) (HPC).
[10] abbreviates: dose: 100.0 mg/kg/injection, schedule: Q01DX009 (ip), vehicle: Klucel (hydroxypropylcellulose) (HPC).
[11] abbreviates: dose: 60.0 mg/kg/injection, schedule: Q01DX005 (ip), vehicle: saline with Tween-80.
The mark [12] stands for this setting: dose: 120.0 mg/kg/injection, schedule: Q01DX005 (ip), vehicle: saline with Tween-80.
The mark [13] stands for this setting: dose: 240.0 mg/kg/injection, schedule: Q01DX005 (ip), vehicle: saline with Tween-80.
The mark [14] stands for this setting: dose: 100.0 mg/kg/injection, schedule: Q04DX002 (ip), vehicle: Klucel (hydroxypropylcellulose) (HPC).
[15] abbreviates: dose: 200.0 mg/kg/injection, schedule: Q04DX002 (ip), vehicle: Klucel (hydroxypropylcellulose) (HPC).
Where [16] appears, read: dose: 400.0 mg/kg/injection, schedule: Q04DX002 (ip), vehicle: Klucel (hydroxypropylcellulose) (HPC).
Where [17] appears, read: dose: 6.25 mg/kg/injection, schedule: Q01DX009 (ip), vehicle: saline with Tween-80.
Where [18] appears, read: dose: 12.5 mg/kg/injection, schedule: Q01DX009 (ip), vehicle: saline with Tween-80.

With `FC(F)(F)C1(C(F)(F)F)OS2(OC1(C(F)(F)F)C(F)(F)F)OC(C(F)(F)F)(C(F)(F)F)C(C(F)(F)F)(C(F)(F)F)O2`, the T/C (dose: 100.0 mg/kg/injection, schedule: Q04DX003 (ip), vehicle: Klucel (hydroxypropylcellulose) (HPC)) is 91 % of control; the T/C (dose: 200.0 mg/kg/injection, schedule: Q04DX003 (ip), vehicle: Klucel (hydroxypropylcellulose) (HPC)) is 91 % of control; the T/C (dose: 400.0 mg/kg/injection, schedule: Q04DX003 (ip), vehicle: Klucel (hydroxypropylcellulose) (HPC)) is 105 % of control.

`CCC(=O)N1C(=O)C(C)C23c4ccccc4C(=O)N2CCCN13` (stereo not given): the T/C is 97 % of control under setting [1], 96 % of control under setting [2] and 96 % of control under setting [3].

For `O=C1c2cccnc2C(=O)c2c(O)ccc(O)c21`, the T/C under setting [4] was 95 % of control; the T/C under setting [5] is 95 % of control; the T/C under setting [6] is 99 % of control; the T/C (dose: 400.0 mg/kg/injection, schedule: Q01DX009 (ip), vehicle: saline with Tween-80) was 100 % of control.

`CC(Sc1ccccc1)C(=O)N1CCCC1` (stereo not given): the T/C by setting is: under setting [4], 106 % of control; under setting [5], 103 % of control; under setting [6], 105 % of control.

Consider `O=C1C=CC(=O)c2c1c(O)c1ccccc1c2Cl`, for which the T/C reads like this: (dose: 6.25 mg/kg/injection, schedule: Q01DX005 (ip), vehicle: saline) 102 % of control; (dose: 12.5 mg/kg/injection, schedule: Q01DX005 (ip), vehicle: saline) 95 % of control; (dose: 25.0 mg/kg/injection, schedule: Q01DX005 (ip), vehicle: saline) 93 % of control.

As for `O=C1C=CC(=O)N1C1CCCCC1`, the T/C was 97 % of control (dose: 6.25 mg/kg/injection, schedule: Q01DX009 (ip), vehicle: Klucel (hydroxypropylcellulose) (HPC)); 100 % of control under setting [7]; 97 % of control under setting [8].

Turning to `CCOC(=O)[C]1([Hg][CH3])N=NC(C(=O)OC)=C1C(=O)OC` (stereo not given), the T/C (dose: 1.56 mg/kg/injection, schedule: Q01DX009 (ip), vehicle: saline) is 90 % of control; the T/C (dose: 3.12 mg/kg/injection, schedule: Q01DX009 (ip), vehicle: saline) is 93 % of control; the T/C (dose: 6.25 mg/kg/injection, schedule: Q01DX009 (ip), vehicle: saline) was 90 % of control; the T/C (dose: 12.5 mg/kg/injection, schedule: Q01DX009 (ip), vehicle: saline) is 93 % of control.

On to `OC1(C2NCCc3ccccc32)CCN(CCc2ccccc2)CC1` (stereo not given), for which the T/C runs as follows: under setting [9], 87 % of control; under setting [10], 94 % of control.

On to `O=C(O)CSC(=S)Nc1ccccn1`, for which the T/C is 94 % of control under setting [4], 90 % of control under setting [5] and 100 % of control under setting [6].

For `O=CC(NC(=O)CCCc1ccc(N(CCCl)CCCl)cc1)C(O)C(O)C(O)CO` (stereo not given), the T/C is, setting by setting: under setting [7], 204 % of control and 215 % of control; under setting [8], 211 % of control and 227 % of control; under setting [9], 105 % of control and 86 % of control and 89 % of control.

Regarding `CC(=O)c1nn(-c2ccccc2)c(=O)cc1C`, the T/C was 100 % of control under setting [1], 98 % of control under setting [2] and 100 % of control under setting [3].

Regarding `O=c1[nH]cnc2ncccc12`, the T/C was 104 % of control under setting [7], 110 % of control under setting [8], 112 % of control under setting [9] and 87 % of control under setting [10].

For `O=c1oc2c(c(N(c3ccccc3)c3ccccc3)c1Cl)CCc1nc(-c3ccccc3)sc1-2`, the T/C under setting [1] was 91 % of control, the T/C under setting [2] was 94 % of control and the T/C under setting [3] is 88 % of control.

On to `COc1cc2c(c3c1c(=S)c1ccccc1n3C)C=CC(C)(C)O2`, for which the T/C by setting is: (dose: 50.0 mg/kg/injection, schedule: Q01DX005 (ip), vehicle: Klucel (hydroxypropylcellulose) (HPC)) 98 % of control; (dose: 100.0 mg/kg/injection, schedule: Q01DX005 (ip), vehicle: Klucel (hydroxypropylcellulose) (HPC)) 98 % of control; (dose: 200.0 mg/kg/injection, schedule: Q01DX005 (ip), vehicle: Klucel (hydroxypropylcellulose) (HPC)) 108 % of control.

As for `O=S(=O)(O)CCCOC1COc2ccccc2OCCOCCOc2ccccc2OC1`, the T/C is, setting by setting: (dose: 50.0 mg/kg/injection, schedule: Q01DX005 (ip), vehicle: saline) 99 % of control; (dose: 100.0 mg/kg/injection, schedule: Q01DX005 (ip), vehicle: saline) 101 % of control; (dose: 200.0 mg/kg/injection, schedule: Q01DX005 (ip), vehicle: saline) 98 % of control.

On to `[N-]=[N+]=Nc1ccc(SN2C(=O)c3ccccc3C2=O)cc1`, for which the T/C by setting is: under setting [11], 112 % of control; under setting [12], 113 % of control; under setting [13], 113 % of control.

Consider `CC/C(=N\NC(=S)SC)c1ccccn1`, for which the T/C is, setting by setting: (dose: 6.25 mg/kg/injection, schedule: Q01DX005 (ip), vehicle: saline with Tween-80) 106 % of control; (dose: 12.5 mg/kg/injection, schedule: Q01DX005 (ip), vehicle: saline with Tween-80) 94 % of control and 96 % of control and 97 % of control; (dose: 25.0 mg/kg/injection, schedule: Q01DX005 (ip), vehicle: saline with Tween-80) 105 % of control and 110 % of control and 94 % of control.

For the molecule `O=C(CCc1cc2[nH]c1c(-c1ccccc1)c1nc(c(-c3ccccc3)c3ccc([nH]3)c(-c3ccccc3)c3nc(c2-c2ccccc2)C=C3)C=C1)NCCCn1ccnc1`, the T/C (dose: 50.0 mg/kg/injection, schedule: Q01DX001 (ip), vehicle: Klucel (hydroxypropylcellulose) (HPC)) was 99 % of control; the T/C (dose: 100.0 mg/kg/injection, schedule: Q01DX001 (ip), vehicle: Klucel (hydroxypropylcellulose) (HPC)) is 91 % of control; the T/C (dose: 200.0 mg/kg/injection, schedule: Q01DX001 (ip), vehicle: Klucel (hydroxypropylcellulose) (HPC)) was 91 % of control; the T/C (dose: 400.0 mg/kg/injection, schedule: Q01DX001 (ip), vehicle: Klucel (hydroxypropylcellulose) (HPC)) is 96 % of control.

In the case of `COc1ccc(NC(=S)Nc2ccc(OCCCN3CCOCC3)cc2)cc1`, the T/C by setting is: under setting [14], 96 % of control; under setting [15], 94 % of control; under setting [16], 94 % of control.

For `CCOC(=O)CC(=O)N(c1ccc(OC)cc1)C(C(=O)OC)c1ccccc1` (stereo not given), the T/C reads like this: under setting [11], 101 % of control; under setting [12], 104 % of control; under setting [13], 104 % of control.

As for `CC(C)(C)C[C](C)(c1ccccc1)[Sn]([CH3])([CH3])[CH3]` (stereo not given), the T/C is 94 % of control under setting [9]; 102 % of control under setting [10]; 102 % of control (dose: 200.0 mg/kg/injection, schedule: Q01DX009 (ip), vehicle: Klucel (hydroxypropylcellulose) (HPC)).

For the molecule `OCC1C=CCC1` (stereo not given), the T/C reads like this: under setting [17], 99 % of control; under setting [18], 101 % of control; (dose: 25.0 mg/kg/injection, schedule: Q01DX009 (ip), vehicle: saline with Tween-80) 90 % of control.

In the case of `C=CCSc1nc(N)nc2nc[nH]c12`, the T/C reads like this: under setting [4], 100 % of control; under setting [5], 100 % of control; under setting [6], 90 % of control.

As to `CC(=O)NC(CC(=O)O)C(=O)O` (stereo not given), the T/C (dose: 100.0 mg/kg/injection, schedule: Q01DX001 (ip), vehicle: saline) was 106 % of control; the T/C (dose: 200.0 mg/kg/injection, schedule: Q01DX001 (ip), vehicle: saline) is 100 % of control; the T/C (dose: 400.0 mg/kg/injection, schedule: Q01DX001 (ip), vehicle: saline) was 97 % of control.

Regarding `O=C(O)c1ccc(NC(=S)NNC(=O)c2ccncc2)cc1`, the T/C by setting is: under setting [14], 99 % of control; under setting [15], 102 % of control; under setting [16], 100 % of control.

Consider `NC(CC1C(=O)Nc2ccccc21)C(=O)O` (stereo not given), for which the T/C under setting [1] is 104 % of control, the T/C under setting [2] is 103 % of control and the T/C under setting [3] was 103 % of control.

In the case of `c1ccc2c(c1)ccc1c(NCCCCNc3c4ccccc4nc4c3ccc3ccccc34)c3ccccc3nc12`, the T/C was 107 % of control under setting [17] and 107 % of control under setting [18].

For `O=C(O)c1c(Cl)c(Cl)c(Cl)c(Cl)c1C(=O)Nc1ccc2cn[nH]c2c1`, the T/C is, setting by setting: (dose: 50.0 mg/kg/injection, schedule: Q01DX009 (ip), vehicle: saline + alcohol) 101 % of control; (dose: 100.0 mg/kg/injection, schedule: Q01DX009 (ip), vehicle: saline + alcohol) 100 % of control.
